“Also recorded” adds a separate entry of the source.
System: immobilised mucin receptor peptide (YVTSAPDTRPAPGST, the epitope sequence from the mucin molecule)
Assay: Equilibrium dialysis binding of I125-labelled EPPT peptides to immobilised mucin receptor peptide
Conditions: 24-48 hours at room temperature, FIGS. 2 and 3
Description: Preparation of immobilised mucin receptor peptide. 7.5 mg of YVTSAPDTRPAPGST (SEQ ID No 18) (the epitope sequence from the mucin molecule) was dissolved in 100 mM sodium phosphate buffer pH8. This was mixed with 7.5 mg of bovine serum albumin (BSA) and made up to 0.5 ml with buffer. 5 μl of 25% glutaraldehye was added, mixed and left to stand at room temperature for 15 minutes. A further 2.5 μl of glutaraldehyde was then added and the mixture left for a further 15 minutes.
Following the incubation, 100 μl of 1M glycine pH6 was added and left for 10 minutes to quench the glutaraldehyde. The reaction mixture was then aliquoted into 100 μl portions and stored at -20° C. until use.
Radiolabelling of EPPT peptides prior to binding assays. Peptides were dissolved in phosphate buffered saline, 100 mM sodium phosphate pH8, or 5% DMSO in sodium phosphate. […] 1 ml fractions were collected from the eluate and assayed for radioactivity.
Binding of EPPT peptides to immobilised mucin receptor peptide. […] Samples are removed from both sides of the membrane and assayed for the presence of radioactivity. […] Following incubation and equilibration, samples were removed from the dialysis module and counted for the presence of I^125. The radioactivity was then converted to amount of peptide for the purposes of determining the amount bound to the immobilised receptor peptide.

## H-EPPTRTFAY-OH [EPPTRTFAY, NH2-EPPTRTFAY-COOH]
  binding to the mucin receptor peptide: no real binding; also recorded: does not itself appear to bind
